Laboratory results published in BindingDB's records for doi:10.1016/j.bmcl.2008.01.067 (Spot-Ea3857, 2008).

Target: Peroxisome proliferator-activated receptor gamma (Homo sapiens) (UniProt P37231)
Test: Agonist activity at human PPARgamma at 100 uM by GAL4 transactivation assay relative to Rosiglitazone

Structure (SMILES) | EC50 [nM]
COC(=O)C(Cc1ccc(OCCN2CCC(C)(C)c3cc(C(=O)c4ccccc4)ccc32)cc1)C(=O)OC [dimethyl 2-(4-(2-(6-benzoyl-4,4-dimethyl-3,4-dihydroquinolin-1(2H)-yl)ethoxy)benzyl)malonate] | 152
CCOC(=O)C(Cc1ccc(OCCN2CCC(C)(C)c3cc(C(N=O)c4ccccc4)ccc32)cc1)OCC (centres undefined) [ethyl 2-ethoxy-3-(4-(2-(6-((hydroxyimino)(phenyl)methyl)-4,4-dimethyl-3,4-dihydroquinolin-1(2H)-yl)ethoxy)phenyl)propanoate] | 48
COC(=O)C(Cc1ccc(OCCN2CCC(C)(C)c3cc(C(N=O)c4ccccc4)ccc32)cc1)C(=O)OC (centres undefined) [dimethyl 2-(4-(2-(6-((hydroxyimino)(phenyl)methyl)-4,4-dimethyl-3,4-dihydroquinolin-1(2H)-yl)ethoxy)benzyl)malonate] | 195
CCO[C@@H](Cc1ccc(OCCc2ccc(OS(C)(=O)=O)cc2)cc1)C(=O)O [(2S)-2-ethoxy-3-(4-{2-[4-(methanesulfonyloxy)phenyl]ethoxy}phenyl)propanoic acid] | 37
